Where “and” joins values, the source holds several entries; their conditions need not be identical. Equal values may be shown once. Read-outs that look alike come from different tables or passages of the source.
Tests used:
Ub^+ and p62^+ puncta = assay: ICC of Ub (FK2) and p62 puncta in HeLa cells; type: cell-based; settings: Fig. 4g; for FK2 (Ub) / p62 colocalization, cells counted per 50 cells (individual replicates): listed as PBA
Procedure: Fig. 4 Targeted autophagic delivery and degradation of misfolded protein cargoes using AUTOTACs with aggregate-binding warhead. a A model illustrating the mode of action of aggregate-targeting AUTOTAC. b Chemical structures of PBA-1105, PBA-1106, Anle138b-F105 and PBA-1105b. c In vitro p62 oligomerization assay in HEK293T cells incubated with the indicated compounds in (b). d WB in HEK293T cells treated with MG132 (1 μM, 24 h), HCQ (10 μM, 24 h), PBA-1105, YTK-1105, and PBA (1 μM, 24 h). e Identical to (d), but with Anle-F105. f ICC of HeLa cells treated with HCQ (10 μM, 24 h), MG132 (2 μM, 18 h) or both in the presence of PBA-1106, YOK-1106 or PBA (1 μM, 24 h). Scale bar, 10 μm. g Quantification of (f) (n = 3, 50 cells). h ICC of HeLa cells treated with Anle138b-F105 (1 μM, 24 h). Scale bar, 10 μm. i Quantification of (h) (n = 3, 50 cells). When indicated, n = 3 biologically independent experiments each counting 50 cells. Data are presented as mean values ± SD where relevant. P-values (from a two-sided unpaired t test): ***P < 7.66E−05. Source data are provided with this paper.
Cells were cultured on coverslips coated with poly-L-lysine (Sigma) to observe cellular localization of proteins. Using 4% paraformaldehyde in PBS (pH 7.4), the cells were fixed for 15 min at room temperature and washed three times for 5 min with PBS. After fixing, the cells were permeabilized with 0.5% Triton X-100 in PBS solution for 15 min and washed three times with PBS for 5 min. The cells were blocked containing 2% BSA in PBS solution for 1 h at room temperature. Subsequently, the cells were incubated with primary antibody diluted in 2% BSA/PBS solution overnight at 4 °C, followed by washing the cells three times for 10 min with PBS and incubated with Alexa Fluor-conjugated secondary antibody diluted in 2% BSA/PBS for 30 min at room temperature. Using a DAPI-containing mounting medium (Vector Laboratories), the coverslips were mounted on glass slides. Confocal images were taken by laser scanning confocal microscope 510 Meta (Zeiss) and analyzed by Zeiss LSM Image Browser (ver. 4.2.0.121). […] Quantification results are shown as mean ± S.D. or S.E.M. of three independent experiments

[1] = biological target: high-molecular weight tau aggregates (Homo sapiens, UniProt P10636, P618L); assay: In vivo oligomerization (aggregation) assay in SH-SY5Y-tauP301L cells; type: cell-based; settings: okadaic acid 15 nM, compound 0.1 μM, 24 h
Procedure: HEK293T cells were transfected with P301L-tau-EGFP plasmid using Lipofectamine 2000. HEK293T and SHYSY5Y-tau cells were treated with p62-ZZ ligands for 24 h. After incubation on ice for 30 min for supernatant collection, the cells were lysed by a cycle of freezing/thawing and centrifuged at 13,000 g for 10 min. Protein concentration was determined using the Pierce BCA Protein Assay Kit (Thermo Fisher Scientific). Non-reducing 4X LDS sample buffer was added to sample lysate, followed by boiling at 100 °C for 10 min and samples were loaded on a 3% stacking and 8% separating SDS-PAGE. Immunoblotting assays were carried out using anti-GFP antibody (Sigma) to visualize the oligomeric complexes of Tau.

[2] = test system: endogenous wild-type murine tau; settings: for AVG (%) Insoluble mTau / AVG (%) Soluble mTau: control 100
[3] = biological target: T1, tau oligomers (htauP301L-BiFC bodies) and phosphorylated tau-BiFC (Homo sapiens, UniProt P10636, P618L); assay: Immunohistochemistry of BiFC and AT8 fluorescence in brains of hTauP301L-BiFC mice; type: in vivo; settings: for Sudan black B AVG CA1: control 32.0843; for Sudan black B AVG Cortex: control 98.7415; for AT8 AVG CA1 / AT8 AVG % CA1 / AT8 AVG % Cortex / AT8 AVG Cortex / AT8 CA1, per animal / AT8 Cortex, per animal: Fig. 6l; for AT8 AVG CA1: control 95.3926; for AT8 AVG Cortex: control 109.457; for AT8 CA1, per animal: control AVG 95.3926; for AT8 Cortex, per animal: control AVG 109.457
T1 construct: from tissue; host or cells: brain of 9-month-old hTauP301L-BiFC transgenic mice (C57BL/6)

tauP301L = tauP301L (Homo sapiens, UniProt P10636, P618L); assay: RIPA insoluble/soluble fractionation of brains of hTauP301L-BiFC mice, human tau; settings: for AVG (%) Insoluble hTau / AVG (%) Soluble hTau: control 100
[4] = test system: ERβ signaling (EGFR, p-ERK/ERK, p-Akt/Akt); assay: WB of ERβ downstream signaling in E2-stimulated LNCaP cells; type: cell-based; settings: levels of EGFR
Text: (§1) To assess the therapeutic efficacy of autophagy-targeting degraders, we compared the downstream signaling of AR and ERβ in cells treated with either AUTOTACs or their cognate TBLs. Dihydrotestosterone (DHT) and estradiol (E2) are natural agonists that respectively bind AR and ERβ and induce their dimerization and nuclear translocation, resulting in transcriptional activation of downstream proteins[27],[28]. […] Next, we examined the potency of AUTOTACs in cancer cell growth and progression.
(§2) Adherent cells were washed with phosphate-buffered saline (PBS) and cell pellets were lysed in SDS-based sample buffer (277.8 mM Tris-HCI, pH 6.8, 4.4% LDS, 44.4% (v/v) glycerol) containing beta-mercaptoethanol. Alternatively, cell pellets or protein supernatants were lysed in 5X Laemmli sample buffer. Whole-cell lysates were separated using SDS-PAGE, and transferred onto polyvinyllidene difluoride membranes at 100 V for 2 h at 4 °C.

[5] = test system: AR pathways (EGFR, p-Akt/Akt); assay: WB of AR downstream signaling in DHT-activated cells; type: cell-based; settings: levels of EGFR and p-Akt/Akt
Text: as §1, §2

tauP301L, sequence (P10636 1-441 isoform P10636-8 P301L): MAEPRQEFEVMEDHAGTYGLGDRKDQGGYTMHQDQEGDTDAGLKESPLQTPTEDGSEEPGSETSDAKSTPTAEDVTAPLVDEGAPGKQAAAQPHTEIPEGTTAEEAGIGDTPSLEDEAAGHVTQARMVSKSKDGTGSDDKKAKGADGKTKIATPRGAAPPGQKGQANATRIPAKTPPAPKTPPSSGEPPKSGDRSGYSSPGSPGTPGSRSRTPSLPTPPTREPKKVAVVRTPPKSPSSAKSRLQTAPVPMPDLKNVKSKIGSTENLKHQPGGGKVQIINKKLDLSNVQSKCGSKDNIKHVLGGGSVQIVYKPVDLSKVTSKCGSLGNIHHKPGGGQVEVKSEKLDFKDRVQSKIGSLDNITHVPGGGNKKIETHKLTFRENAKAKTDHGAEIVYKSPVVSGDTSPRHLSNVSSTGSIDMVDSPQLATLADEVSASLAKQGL
T1 sequence (P10636 1-441 isoform P10636-8 P301L): as above
high-molecular weight tau aggregates, sequence (P10636 1-441 isoform P10636-8 P301L): as above

In the case of `O=C(O)CCCc1ccccc1` [4-PBA, 4-phenylbutyric acid], the “FK2 (Ub) / p62 colocalization, AVG of cells per 50 cells” value (Ub^+ and p62^+ puncta; no co-treatment (con)) is reported as 6.333, the “FK2 (Ub) / p62 colocalization, percentage AVG” value (Ub^+ and p62^+ puncta; no co-treatment (con)) is reported as 12.6667 percentage and the “FK2 (Ub) / p62 colocalization, cells counted per 50 cells (individual replicates)” value (Ub^+ and p62^+ puncta; no co-treatment (con), count out of 50 cells) is reported as 7 and 9 and 3. The “FK2 (Ub) / p62 colocalization, AVG of cells per 50 cells” value (Ub^+ and p62^+ puncta; with HCQ) was 19, the “FK2 (Ub) / p62 colocalization, percentage AVG” value (Ub^+ and p62^+ puncta; with HCQ) was 38 percentage and the “FK2 (Ub) / p62 colocalization, cells counted per 50 cells (individual replicates)” value (Ub^+ and p62^+ puncta; with HCQ, count out of 50 cells) was 25 and 15 and 17. The “FK2 (Ub) / p62 colocalization, AVG of cells per 50 cells” value (Ub^+ and p62^+ puncta; with MG132) was 24, the “FK2 (Ub) / p62 colocalization, percentage AVG” value (Ub^+ and p62^+ puncta; with MG132) was 48 percentage and the “FK2 (Ub) / p62 colocalization, AVG of cells per 50 cells” value (Ub^+ and p62^+ puncta; with MG132+HCQ) was 35.3333. For the same compound, the “FK2 (Ub) / p62 colocalization, percentage AVG” value (Ub^+ and p62^+ puncta; with MG132+HCQ) was 70.6667 percentage, the “FK2 (Ub) / p62 colocalization, cells counted per 50 cells (individual replicates)” value (Ub^+ and p62^+ puncta; with MG132+HCQ, count out of 50 cells) was 32 and 39 and 35 and the “FK2 (Ub) / p62 colocalization, cells counted per 50 cells (individual replicates)” value (Ub^+ and p62^+ puncta; with MG132, count out of 50 cells) was 13 and 33 and 26.

For `O=C(CCCc1ccccc1)NCCOCCOCCOCCNCc1ccc(OCc2ccccc2)c(OCc2ccccc2)c1` [PBA-1105], the “high-molecular weight tau aggregates” value [1] was “effectively eliminated high-molecular weight tau aggregates”, the “AVG (%) Insoluble mTau” value ([2]; 20 mg/kg) was 110.945% and the “AVG (%) Soluble mTau” value ([2]; 20 mg/kg) was 97.7163%. For the same compound, the “AVG (%) Insoluble mTau” value ([2]; 50 mg/kg) was 56.7728%, the “AVG (%) Soluble mTau” value ([2]; 50 mg/kg) was 133.669% and the “endogenous wild-type murine tau in detergent-soluble or -insoluble fractions” value ([2]; mouse, in vivo) was “did not degrade”. The “Sudan black B AVG CA1” value ([3]; Fig. 6k, 20 mg/kg) was 24, the “Sudan black B AVG Cortex” value ([3]; Fig. 6k, 20 mg/kg) was 61.9321 and the “Sudan black B AVG CA1” value ([3]; Fig. 6k, 50 mg/kg) was 34.5914. For the same compound, the “Sudan black B AVG Cortex” value ([3]; Fig. 6k, 50 mg/kg) was 38.2621, the “Sudan black B AVG % CA1” value ([3]; Fig. 6k, 50 mg/kg, control 100) was 107.814% and the “AT8 AVG CA1” value ([3]; 20 mg/kg) was 71.2628. The “AT8 AVG % CA1” value ([3]; 20 mg/kg, control 100) was 74.7047%, the “AT8 AVG % Cortex” value ([3]; 20 mg/kg, control 100) was 77.6283% and the “AT8 AVG Cortex” value ([3]; 20 mg/kg) was 84.9698. For the same compound, the “AT8 CA1, per animal” value ([3]; 20 mg/kg) was 75.563 and 74.477 and 82.816 and 64.806 and 58.652, the “AT8 Cortex, per animal” value ([3]; 20 mg/kg) was 72.808 and 80.823 and 112.523 and 115.092 and 43.603 and the “AT8 AVG CA1” value ([3]; 50 mg/kg) was 65.5443. The “AT8 AVG % CA1” value ([3]; 50 mg/kg, control 100) was 68.7101%, the “AT8 AVG % Cortex” value ([3]; 50 mg/kg, control 100) was 62.2901% and the “AT8 AVG Cortex” value ([3]; 50 mg/kg) was 68.181. The “AT8 CA1, per animal” value ([3]; 50 mg/kg) was 51.948 and 69.287 and 60.135 and 88.15 and 58.518 and 65.228, the “AT8 Cortex, per animal” value ([3]; 50 mg/kg) was 68.316 and 68.839 and 67.094 and 66.047 and 57.905 and 80.885 and the “soluble bodies of phosphorylated tau-BiFC (AT8 staining)” value ([3]; cortex and CA1 region) was “marked eradication”. For the same compound, the “total tau oligomers (BiFC) in cortex and CA1 region of hippocampus” value ([3]; hTauP301L-BiFC mice, dosage-dependent) was “drastic reduction”, the “AVG (%) Insoluble hTau” value (tauP301L; 20 mg/kg) was 43.8995% and the “AVG (%) Soluble hTau” value (tauP301L; 20 mg/kg) was 87.1538%. The “AVG (%) Insoluble hTau” value (tauP301L; 50 mg/kg) was 10.5836%, the “AVG (%) Soluble hTau” value (tauP301L; 50 mg/kg) was 66.7118% and the “soluble tau species in brain” value (tauP301L; hTauP301L-BiFC mice, i.p. 20 or 50 mg/kg) was “little if any reduction”. For the same compound, the “detergent-insoluble tauP301L in brain” value (tauP301L; hTauP301L-BiFC mice, i.p. 20 or 50 mg/kg, three times per week for one month) was “marked clearance”.

In the case of `O[C@H](CNCCOCCOCCOc1ccc(-c2c(-c3ccccc3)nn3c(C(F)(F)F)cc(C(F)(F)F)nc23)cc1)COc1ccc(OCc2ccccc2)c(OCCCc2ccccc2)c1` [PHTPP-1304], the “inhibition of ERβ signaling relative to its TBL” value [4] is reported as 10 folds.

For `C=CC(C)(O)C(=O)N(C(=O)NCCOCCOCCNCC(O)COc1ccc(OCCc2ccccc2)c(OCCc2ccccc2)c1)c1cc(Cl)cc(Cl)c1` (stereo not drawn) [VinclozolinM2-2204], the “inhibition of AR pathways relative to its TBL” value [5] was “approximately 4 folds”.

Reference: article PMC8850458, “The AUTOTAC chemical biology platform for targeted protein degradation via the autophagy-lysosome system” (Nature Communications, 2022)
